Reference: US5955616A, “Pyrrolidine derivatives having phospholipase A2 inhibitory activity” (Shionogi & Co., Ltd., priority 1995, dated 1999)

What was measured:
[1] = target: T1, cPLA2 (Homo sapiens, UniProt P47712); assay: cPLA2 Inhibitory activity (release of radiolabelled fatty acid from liposomes); type: biochemical; conditions: 50 mM HEPES pH 7.4, 1 mM CaCl2, 2.5 μM radio-labeled phosphatidylcholine, 15 min at 37° C; read-out: cPLA2 Inhibition Activity IC50
T1 sequence (P47712 1-749): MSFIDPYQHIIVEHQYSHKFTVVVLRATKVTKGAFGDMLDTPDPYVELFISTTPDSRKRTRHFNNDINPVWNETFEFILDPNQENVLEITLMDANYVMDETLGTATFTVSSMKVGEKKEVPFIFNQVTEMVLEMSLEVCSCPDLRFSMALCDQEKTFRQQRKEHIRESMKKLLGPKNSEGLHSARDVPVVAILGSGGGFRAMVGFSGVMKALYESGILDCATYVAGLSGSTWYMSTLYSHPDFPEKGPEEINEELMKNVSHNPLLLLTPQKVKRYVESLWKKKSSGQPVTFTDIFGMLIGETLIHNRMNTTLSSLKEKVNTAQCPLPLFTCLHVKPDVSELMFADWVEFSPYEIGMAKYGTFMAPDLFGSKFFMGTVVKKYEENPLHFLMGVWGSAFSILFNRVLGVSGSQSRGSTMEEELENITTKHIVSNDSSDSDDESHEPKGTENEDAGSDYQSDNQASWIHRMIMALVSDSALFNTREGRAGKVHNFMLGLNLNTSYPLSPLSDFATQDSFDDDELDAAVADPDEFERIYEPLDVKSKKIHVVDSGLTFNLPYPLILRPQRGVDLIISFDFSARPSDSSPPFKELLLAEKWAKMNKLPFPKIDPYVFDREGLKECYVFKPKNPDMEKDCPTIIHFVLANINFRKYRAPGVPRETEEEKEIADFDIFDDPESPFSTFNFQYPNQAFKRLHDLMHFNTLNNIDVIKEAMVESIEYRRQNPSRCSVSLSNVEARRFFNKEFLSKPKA
Experimental: Experiment 1 cPLA2 Inhibitory activity
The compounds of the present invention was tested for the cPLA2 inhibitory activity by a method known in a literature (R. M. Kramer, E. F. Roberts, J. Manetta and J. E. Putnam, J. Biol. Chem., 268(8), 5268-5272 ([…])), as outlined below.
As a substrate, liposomes which contain 1-palmitoyl-2-[^14 C]-arachidonoyl-sn-glycero-3-phosphocholine and sn-1,2-dioleoylglycerol at the ratio of 2:1 and have treated ultrasonically were used. The substrate was added to a 50 mM HEPES buffer (pH 7.4) (200 μl) containing 1 mM CaCl2, 2 mM dithiothreitol, 150 mM NaCl, 0.1 mg/ml BSA so as to make the concentration of radio-labeled phosphatidylcholine 2.5 μM. To the solution was added a compound of the present invention in DMSO (10 μl) to obtain reaction solutions each containing the test compound at 250 μM, 50 μM, 10 μm, 2 μM, and 0.4 μM. The reaction was allowed to start by adding an enzyme (cPLA2) (4 ng) and continued for 15 min at 37° C.
The amount of fatty acids released by the reaction was measured on a liquid scintillation counter. Control was obtained by conducting the experiment in the same manner except that a compound of the present invention was not added. The inhibitory activity was expressed as percent (%) to the control value, which was used for the calculation of the concentration required for 50% inhibition (IC50, μM).

[2] = test system: Prostaglandin E2 production in human fibroblasts; assay: Inhibition of Production of Prostaglandin E2 in Human Fibroblasts (IL-1 stimulated); type: cell-based; conditions: Fibroblast, stimulation with IL-1, read-out: Inhibitory activity Against the Production of Prostaglandin E2 in Human Fibroblasts IC50
Experimental: Experiment 2 Inhibition of Production of Prostaglandin E2 in Human Fibroblasts
From this viewpoint, the compounds of the present invention were tested for the effect on the production of prostaglandin E2 by human fibroblasts under the stimulation with IL-1 according to the method of J. M. Dayer et al (CACHECTIN/TUMOR NECROSIS FACTOR STIMULATES COLLAGENASE AND PROSTAGLANDIN E2 PRODUCTION BY HUMAN SYNOVIAL CELLS AND DERMAL FIBROBLASTS; J. M. Dayer, B. Beutlerm and A. Cerami, J. Exp. Med., 162,2163-2168, 1985).

SMILES | IC50 [1] [µM] | IC50 [2] [µM]
CS[C@H]1C[C@@H](C(=O)Nc2ccc(C=C3SC(=S)NC3=O)cc2)N(C(=O)c2ccc(-c3ccccc3)cc2)C1 [Compound A-21] | 18 | 1
O=C1NC(=S)SC1=Cc1ccc(NC(=O)[C@@H]2C[C@H](SCc3ccccc3)CN2C(=O)c2cccnc2)cc1 [Compound A-23] | 10 | 8.6
O=C1NC(=S)SC1=Cc1ccc(NC(=O)[C@@H]2C[C@H](SCc3ccccc3)CN2C(=O)c2ccncc2)cc1 [Compound A-24] | 9.2 | 4.9
CS[C@H]1C[C@@H](C(=O)Nc2ccc(C=C3SC(=O)NC3=O)cc2)N(C(=O)Cc2ccc(Br)cc2)C1 [Compound A-25] | 18 | 8
CS[C@H]1C[C@@H](C(=O)Nc2ccc(C=C3SC(=S)NC3=O)cc2)N(C(=O)Cc2ccc(Br)cc2)C1 [Compound A-26] | 2.8 | 1.8
CC(C)S[C@H]1C[C@@H](C(=O)Nc2ccc(C=C3SC(=S)NC3=O)cc2)N(C(=O)Cc2ccc(Br)cc2)C1 [Compound A-27] | 5.1 | 2.6
O=C1NC(=S)SC1=Cc1ccc(NC(=O)[C@@H]2C[C@H](SCc3ccccc3)CN2C(=O)Nc2ccccc2)cc1 [Compound A-28] | 8.3 | 0.73
O=C1NC(=S)SC1=Cc1ccc(NC(=O)[C@@H]2C[C@H](SCc3ccccc3)CN2C(=S)Nc2ccccc2)cc1 [Compound A-29] | 5.9 | 1.2
CCCCNC(=O)N1C[C@@H](SCc2ccccc2)C[C@H]1C(=O)Nc1ccc(C=C2SC(=S)NC2=O)cc1 [Compound A-30] | 16 | 0.51
CC(=O)Nc1c(Cl)cc(S(=O)(=O)N2C[C@@H](SCc3ccccc3)C[C@H]2C(=O)Nc2ccc(/C=C3\SC(=S)NC3=O)cc2)cc1Cl [Compound A-37] | 1.6 | 6.9
CC(=O)Nc1ccc(S(=O)(=O)N2C[C@@H](SCc3ccccc3)C[C@H]2C(=O)Nc2ccc(/C=C3\SC(=S)NC3=O)cc2)cc1 [Compound A-38] | 6.4 | 4.9
CC(C)(C)c1ccc(S(=O)(=O)N2C[C@@H](SCc3ccccc3)C[C@H]2C(=O)Nc2ccc(/C=C3\SC(=S)NC3=O)cc2)cc1 [Compound A-39] | 6.2 | 6
CS[C@H]1C[C@@H](C(=O)Nc2ccc(/C=C3\SC(=O)NC3=O)cc2)N(S(=O)(=O)c2c(Cl)cccc2Cl)C1 [Compound A-40] | 15 | 7.7
O=C1NC(=S)S/C1=C\c1ccc(NC(=O)[C@@H]2C[C@H](SCc3ccccc3)CN2S(=O)(=O)c2c(Cl)cccc2Cl)cc1 [Compound A-41] | 3.4 | 14
O=C1NC(=O)/C(=C/c2ccc(NC(=O)[C@@H]3C[C@H](SCc4ccccc4)CN3S(=O)(=O)c3ccc(-c4ccccc4)cc3)cc2)S1 [Compound A-42] | 14 | 3.8
O=C1NC(=S)S/C1=C\c1ccc(NC(=O)[C@@H]2C[C@H](SCc3ccccc3)CN2S(=O)(=O)c2ccc(-c3ccccc3)cc2)cc1 [Compound A-43] | 6.8 | 8.8
CS[C@H]1C[C@@H](C(=O)Nc2ccc(/C=C3\SC(=O)NC3=O)cc2)N(S(=O)(=O)c2ccc(-c3ccccc3)cc2)C1 [Compound A-44] | 7.4 | 1.5
CS[C@H]1C[C@@H](C(=O)Nc2ccc(/C=C3\SC(=S)NC3=O)cc2)N(S(=O)(=O)c2ccc(-c3ccccc3)cc2)C1 [Compound A-45] | 4.8 | 1.5
COc1cc(CS[C@H]2C[C@@H](C(=O)Nc3ccc(/C=C4\SC(=O)NC4=O)cc3)N(S(=O)(=O)c3ccc(-c4ccccc4)cc3)C2)cc(OC)c1OC [Compound A-46] | 7 | 1.5

SMILES | IC50 [1] [µM] | IC50 [2] [µM]
O=C1NC(=S)S/C1=C\c1ccc(NC(=O)[C@@H]2C[C@H](SCc3ccccc3)CN2S(=O)(=O)c2ccc(Cc3ccccc3)cc2)cc1 [Compound A-48] | 4.9 | 8.7
CN(C)c1cccc2c(S(=O)(=O)N3C[C@@H](SCc4ccccc4)C[C@H]3C(=O)Nc3ccc(/C=C4\SC(=S)NC4=O)cc3)cccc12 [Compound A-52] | 5.6 | 2.9
O=C1NC(=S)S/C1=C\c1ccc(NC(=O)[C@@H]2C[C@H](SCc3ccccc3)CN2S(=O)(=O)Cc2ccc(Br)cc2)cc1 [Compound A-54] | 3.4 | 1.1
O=C1NC(=S)S/C1=C\c1ccc(NC(=O)[C@@H]2C[C@H](SCc3ccccc3)CN2S(=O)(=O)Cc2ccc(F)cc2)cc1 [Compound A-55] | 3.4 | 1.1
N#CCCCOc1ccc(CS[C@H]2C[C@@H](C(=O)Nc3ccc(/C=C4\SC(=S)NC4=O)cc3)N(S(=O)(=O)Cc3ccc(Br)cc3)C2)cc1 [Compound A-56] | 1.9 | 0.93
O=C1NC(=S)S/C1=C\c1cn(NC(=O)[C@@H]2C[C@H](SCc3ccccc3)CN2C(=O)c2ccccc2)c2ccccc12 [Compound A-60] | 6.1 | 1.3
O=C1NC(=S)O/C1=C\c1cn(NC(=O)[C@@H]2C[C@H](SCc3ccccc3)CN2C(=O)c2ccccc2)c2ccccc12 [Compound A-61] | 1.6 | 10
CC(C)(C)OC(=O)N1C[C@@H](SC(c2ccccc2)(c2ccccc2)c2ccccc2)C[C@H]1C(=O)Nc1ccc(/C=C2\OC(=S)NC2=O)cc1 [Compound A-62] | 4.3 | 2.2
O=C1NC(=O)/C(=C/c2ccc(C(=O)NC[C@@H]3C[C@H](SC(c4ccccc4)(c4ccccc4)c4ccccc4)CN3C(=O)CCc3ccccc3)cc2)S1 [Compound B-1] | 0.82 | 7.5
COc1ccc(COC(=O)N2C[C@@H](SCc3cc(C(C)(C)C)c(OC)c(C(C)(C)C)c3)C[C@H]2CNC(=O)c2ccc(/C=C3\SC(=O)NC3=O)cc2)cc1 [Compound B-3] | 1.2 | 2.1
O=C1NC(=O)/C(=C/c2ccc(C(=O)NC[C@@H]3C[C@H](SC(c4ccccc4)(c4ccccc4)c4ccccc4)CN3C(=O)OCc3ccc([N+](=O)[O-])cc3)cc2)S1 [Compound B-4] | 2.4 | 4.6
COC(=O)c1ccc(CS[C@H]2C[C@@H](CNC(=O)c3ccc(/C=C4\SC(=S)NC4=O)cc3)N(C(=O)c3ccccc3)C2)cc1 [Compound B-5] | 2.2 | 2
NC(=O)c1ccc(CS[C@H]2C[C@@H](CNC(=O)c3ccc(/C=C4\SC(=S)NC4=O)cc3)N(C(=O)c3ccccc3)C2)cc1 [Compound B-6] | 31 | 4.7
O=C1NC(=O)C(=Cc2ccc(S(=O)(=O)NC[C@@H]3C[C@H](SCc4ccccc4)CN3C(=O)c3ccccc3)cc2)S1 [Compound B-7] | 9.7 | 3.6
CS[C@H]1C[C@@H](C(=O)Nc2ccccc2/C=C2\SC(=O)NC2=O)N(S(=O)(=O)c2ccc(-c3ccccc3)cc2)C1 [Compound C-1] | 30 | 6.1
COC(=O)c1cc(C=C2SC(=O)NC2=O)cc(NC(=O)C2CC(OC(c3ccccc3)c3ccccc3)CN2C(=O)c2ccccc2)c1 (centres unmarked) [Compound C-4] | 3.2 | 2
COC(=O)CCc1cc(C=C2SC(=O)NC2=O)cc(NC(=O)C2CC(OC(c3ccccc3)c3ccccc3)CN2C(=O)c2ccccc2)c1 (centres unmarked) [Compound C-5] | 9.8 | 1.2
O=C1NC(=O)C(=Cc2cc(CCCO)cc(NC(=O)C3CC(OC(c4ccccc4)c4ccccc4)CN3C(=O)c3ccccc3)c2)S1 (centres unmarked) [Compound C-6] | 13 | 2.3
